# From US20220135940A1, “METHOD FOR PRODUCING KIDNEY STRUCTURE HAVING DENDRITICALLY BRANCHED COLLECTING DUCT FROM PLURIPOTENT STEM CELLS” (NATIONAL UNIVERSITY CORPORATION KUMAMOTO UNIVERSITY, priority 2018, published 2022)
# Key:
# human iPS cells [1] = experiment: Induction of CXCR4+/KIT+ WD progenitors from human iPS cells, FACS at day 6.25; format: cell-based
# Experimental: (§1) Cells were reaggregated at 10,000 cells per aggregate in a V-bottom 96-well low cell binding plate using a medium containing 10 μM Y27632 and 10 ng/mL human activin A and 1 ng/mL human Bmp4 (“Procedure 1 medium”), to form embryonic bodies (EBs). After 24 hours (day 1), the aggregates were transferred to a U-bottom 96-well low cell binding plate containing a medium containing 10 μM CHIR and 1 ng/mL human Bmp4 (“Procedure 2 medium”). After 36 hours (day 2.5), the medium was replaced with a medium containing 0.1 μM retinoic acid, 100 ng/mL human Fgf9, 100 nM LDN193189 and 100 μM SB431542 (“Procedure 3 medium”). On day 4.5, the medium was replaced with a medium containing 0.1 μM retinoic acid, 5 μM CHIR, 100 ng/mL human Fgf9 and 30 nM LDN193189 (“Procedure 4 medium”).
# On day 6.25, the induced spheroids were harvested and dissociated by incubating in 0.25% trypsin/EDTA for 6 minutes at 37° C. After blocking in normal mouse serum, cell surface marker (CXCR4/KIT) staining was carried out in a buffer containing 1% BSA, 1×HBSS and 0.035% NaHCO3. The FACS-sorted 5,000 of CXCR4+/KIT+ cells were seeded in a V-bottom 96-well low cell binding plate and precipitated by the centrifuge (210 G for 4 minutes). The supernatant was replaced with a medium containing 10 μM Y27632, 0.1 μM retinoic acid, 1 μM CHIR, 5 ng/mL human Fgf9, 100 ng/mL human Fgf1, 10 nM LDN193189 and 10% growth factor reduced Matrigel (“Procedure 5 medium”). On day 8.5, the spheroids were transferred to a medium containing 10 μM Y27632, 0.1 μM retinoic acid, 3 μM CHIR, 5 ng/mL human Fgf9, 1 ng/mL human GDNF, 100 ng/mL human Fgf1, 10 nM LDN193189 and 10% growth factor reduced Matrigel (“Procedure 6 medium”). On day 10.5, the spheroids were transferred to a medium containing 10 μM Y27632, 0.1 μM retinoic acid, 3 μM CHIR, 2 ng/mL human GDNF, 100 ng/mL human Fgf1, 10 nM LDN193189 and 10% growth factor reduce Matrigel (“Procedure 7 medium”).
# (§2) Cell aggregates induced from embryonic tissue or mouse ES cells/human iPS cells were dissociated and blocked with normal mouse serum and then cell surface marker staining was carried out in a buffer containing 1% BSA, 1×HBSS and 0.035% NaHCO3. Data analysis was performed with FlowJo software (Treestar).
# Next, the optimal time window for inducing anterior or posterior intermediate mesoderm from the nascent mesoderm was examined. Since the nascent mesoderm population is maintained by the high concentrations of Wnt agonists, the incubation period with Wnt agonists was varied and the subsequent differentiation was applied with conditions specific to the UB or metanephric nephron progenitor cell lineage. The induction efficiency of CXCR4+/KIT+ WD progenitor or ITGA8+/PDGFRA− nephron progenitor cell fraction was examined at day 6.25 or day 12, respectively. […]
# human iPS cells [2] = experiment: AIM induction from human iPS cells (procedure 3), AIM marker genes by quantitative analysis at day 4.5; format: cell-based; details: administered at procedure 3, day 4.5
# Experimental: as §1
# (§3) Harvested spheroids or cells were homogenized, and total RNA was isolated using RNeasy Plus Micro Kit (Qiagen), and then a reverse-transcribed with random primers and Superscript III (Invitrogen). Quantitative PCR was carried out using Real-Time PCR system (Takara Bio) and Thunderbird SYBR qPCR Mix (Toyobo). With normalized by β-actin gene, relative mRNA expression levels were analyzed.
# The induction of WD from human iPS cells was performed as follows. […] This was confirmed by quantitative analysis at day 4.5 and day 6.25, respectively (FIG. 22).
# [3] = test system: human iPS cell-derived CXCR4+/KIT+ WD progenitors; experiment: Maturation culture of sorted human iPS cell-derived CXCR4+/KIT+ WD progenitors, mature WD marker genes; format: cell-based; details: continuous administration in addition to mouse WD maturation cocktails, 10% Matrigel
# Experimental: On day 6.25, the induced spheroids were harvested and dissociated by incubating in 0.25% trypsin/EDTA for 6 minutes at 37° C. After blocking in normal mouse serum, cell surface marker (CXCR4/KIT) staining was carried out in a buffer containing 1% BSA, 1×HBSS and 0.035% NaHCO3. The FACS-sorted 5,000 of CXCR4+/KIT+ cells were seeded in a V-bottom 96-well low cell binding plate and precipitated by the centrifuge (210 G for 4 minutes). The supernatant was replaced with a medium containing 10 μM Y27632, 0.1 μM retinoic acid, 1 μM CHIR, 5 ng/mL human Fgf9, 100 ng/mL human Fgf1, 10 nM LDN193189 and 10% growth factor reduced Matrigel (“Procedure 5 medium”). On day 8.5, the spheroids were transferred to a medium containing 10 μM Y27632, 0.1 μM retinoic acid, 3 μM CHIR, 5 ng/mL human Fgf9, 1 ng/mL human GDNF, 100 ng/mL human Fgf1, 10 nM LDN193189 and 10% growth factor reduced Matrigel (“Procedure 6 medium”). […]
# as §3, with “analyzed. […]” for “analyzed.”
# [4] = test system: sorted Hoxb7-GFP positive E8.75 WD progenitors; experiment: Maturation culture of sorted E8.75 WD progenitors, marker genes by qRT-PCR; format: cell-based, mouse; details: Wnt agonist 3 μM and Fgf9 100 ng/mL
# Experimental: For embryonic tissue cultures at E8.75, the region caudal to the heart primordia of 12-15 somite-stage embryos were harvested and Hoxb7-GFP+/Flk1− cells were sorted by FACS. The sorted cells were aggregated in a V-bottom 96-well low cell binding plate at about 1,200 cells per aggregate. It was cultured for the first 24 hours using a medium containing 10 μM Y27632, 0.1 μM retinoic acid, 1 μM CHIR99021, 5 ng/mL human Fgf9 and 10% growth factor reduced Matrigel (“Procedure 5 medium”), then, the spheroids were transferred to “Procedure 6 medium” and “Procedure 7 medium,” and cultured for 24 hours each for differentiation.
# as §3
# As the second procedure, the factors that mature the E8.75WD into the E9.5WD were found as follows. We investigated the factors that trigger maturation of the WD progenitors in the early stage, from embryonic E8.75 to E9.5 stage. At embryonic E8.75 to E9.5 stage, the Hoxb7-GFP positive WD progenitors are first clearly detectable in the anterior body trunk of the embryo (8-10 somite level). […]
# mouse ES cells [5] = experiment: Induction of CXCR4+/KIT+ WD progenitors from mouse ES cells, FACS at day 6.25; format: cell-based
# Experimental: (§4) ES cells were differentiated in a serum-free medium as follows. The ES cells were dissociated with Accutase™ (ESGRO) and cultured in a serum-free mouse ES cell differentiation medium. The harvested cells were aggregated in a 96-well U-bottom low cell binding plate at 1,000 cells per aggregate to form embryonic bodies (EBs). After 48 hours (day 2), the EBs were dissociated with Accutase and re-aggregated in a serum-free differentiation medium supplemented with 10 ng/mL human activin A (R & D) (Procedure 1). After 24 hours (day 3), the medium was replaced with a medium containing 0.3 ng/mL human Bmp4 (R & D) and 10 μM CHIR 99021 (Procedure 2). After 36 hours (day 4.5), the medium was replaced with procedure 3 medium containing 0.1 μM retinoic acid, 100 ng/mL human Fgf9 and 10 μM SB431542 (Wako). On day 5.5 (24 hours later), the medium was replaced with a medium containing 0.1 μM retinoic acid, 100 ng/mL human Fgf9 and 5 μM CHIR99021 (“Procedure 4 medium”). The differentiation factors of the Hoxb7-GFP ES cell line are shown in the table below together with the differentiation factors of the Osr1-GFP ES cell line.
# On day 6.25, the induced spheroids were harvested and dissociated by incubating in 0.25% trypsin/EDTA at 37° C. for 6 minutes. After blocking in normal mouse serum, cell surface marker (CXCR4/KIT) staining was carried out in a buffer containing 1% BSA, 1×HBSS and 0.035% NaHCO3. The FACS-sorted 3,000 Hoxb7-GFP+/CXCR4+/KIT+ cells were aggregated in a V-bottom 96-well low cell binding plate to form spheroids. Subsequently, these were cultured using the above E8.75 embryonic tissue culture conditions.
# as §2
# mouse ES cells [6] = experiment: AIM induction from mouse ES cells (procedure 3), AIM marker expression; format: cell-based; details: Fgf9 at high concentrations
# Experimental: as §4, §3
# Next, signaling for the AIM differentiation procedure was hypothesized, which is partially different from that for PIM, based on the gene expression profile minimally conserved, between anterior intermediate mesoderm (AIM) (Osr1+, Pax2+, Pax8+, Emx2+, Lhx1+, Gata3+) and posterior intermediate mesoderm (PIM) (Osr1+, Wtl+, Hoxll+) (Procedure 3 in FIG. 2).
# [7] = test system: WD sorted from dissociated E9.5 mouse embryos; experiment: Maturation culture of sorted E9.5 embryonic WD with growth factor combinations, marker genes by qRT-PCR; format: cell-based; details: E9.5 WD aggregates, Gdnf added to RA, Wnt agonist and Fgf9
# Experimental: The posterior regions were harvested from the forelimbs of 22-26 somatic-stage embryos for embryonic tissue culture at […]. The harvested tissues were dissociated into single cells by incubating in DMEM/10% FBS containing 1 mg/mL Type XI collagenase for 6 minutes at 37° C., followed by treatment with DNase I and 0.25% trypsin at 37° C. for 6 minutes. After blocking in normal mouse serum, cell surface marker (Flk1) staining was carried out. Hoxb7-GFP+/Flk1− cells sorted by FACS were resuspended in a mouse ES cell differentiation media, and seeded in a V-bottom 96-well low cell binding plate (Sumitomo Bakelite, Co., Ltd., Cat #MS-9096V) so that there were about 1,600 cells per well. After the centrifuge (210 G, 4 min), the supernatant media was replaced with a medium containing 10 μM Y27632 (Wako), 0.1 μM retinoic acid, 3 μM CHIR99021, 5 ng/mL human Fgf9 (R & D), 1 ng/mL human GDNF (R & D) and 10% growth factor reduced Matrigel (BD) (“Procedure 6 medium”). […]
# as §3, with “analyzed. […]” for “analyzed.”
molecule,measurement,setting,value
"c1ccc2c(-c3cnn4cc(-c5ccc(N6CCNCC6)cc5)cnc34)ccnc2c1 [LDN, LDN193189, reference compound]",induction of CXCR4+/KIT+ WD progenitors,"human iPS cells [1]; administered at procedure 3, day 6.25",greatly enhanced
same,AIM marker genes expression,human iPS cells [2],greatly enhanced
same,expression of the mature WD marker genes,[3],further enhanced the expression of the mature WD marker genes
"Cc1c[nH]c(-c2cnc(NCCNc3ccc(C#N)cn3)nc2-c2ccc(Cl)cc2Cl)n1 [CHIR99021, reference compound]","expression of maturation marker genes (Hnf1b, Wnt9b, Calb1, E-cadherin)",[4],worked inhibitory
same,induction of the CXCR4+/KIT+ population,"mouse ES cells [5]; procedure 4, removal of the factor from RA, Wnt agonist and Fgf9",dramatically reduced the induction of the CXCR4+/KIT+ population
"Fgf1: fibroblast cell growth factor, human Fgf1",expression of the mature WD marker genes,[3],further enhanced the expression of the mature WD marker genes
"NC(=O)c1ccc(-c2nc(-c3ccc4c(c3)OCO4)c(-c3ccccn3)[nH]2)cc1 [SB431542, reference compound]",induction of AIM markers,mouse ES cells [6],enhanced the AIM marker induction
"CC1=C(/C=C/C(C)=C/C=C/C(C)=C/C(=O)O)C(C)(C)CCC1 [retinoic acid, all trans-retinoic acid, reference compound]",induction of AIM markers,mouse ES cells [6],common inducer for both AIM and PIM induction
"Bmp4: BMP signal pathway active substance, human Bmp4 (R & D) (protein, UniProt P12644 293-408, looked up) Bone morphogenetic protein 4: SPKHHSQRARKKNKNCRRHSLYVDFSDVGWNDWIVAPPGYQAFYCHGDCPFPLADHLNSTNHAIVQTLVNSVNSSIPKACCVPTELSAISMLYLDEYDKVVLKNYQEMVVEGCGCR",concentration at which WD progenitor induction peaked,"human iPS cells [1]; epiblast patterning stage (day 0 to day 1), combination of activin A and Bmp4",1 ng/mL
same,concentration at which UB progenitor cells were most efficiently induced,"human iPS cells [1]; mesoderm induction/patterning with CHIR, days 1 to 2.5",1 ng/mL
same,"UB induction versus MM induction, concentration dependence","mouse ES cells [5]; Bmp4 in procedure 2, activin A in procedure 1",maximized at higher Bmp4 concentrations compared to MM
same,induction of AIM markers,mouse ES cells [6],inhibitory to the induction of AIM markers
"Gdnf: glial cell line-derived neurotrophic factor, recombinant human GDNF protein (protein, UniProt P39905 78-211, looked up) Glial cell line-derived …: SPDKQMAVLPRRERNRQAAAANPENSRGKGRRGQRGKNRGCVLTAIHLNVTDLGLGYETKEELIFRYCSGSCDAAETTYDKILKNLSRNRRLVSDKVGQACCRPIAFDDDLSFLDDNLVYHILRKHSAKRCGCI",Wnt11 expression and bud-like structure formation,[7],successfully induced the Wnt11 expression and bud-like structure formation
